Reference: US11845730B2, “1,3-substituted cyclobutyl derivatives and uses thereof” (Novartis AG, priority 2021, dated 2023)
Where a name gives a salt, the structure may show the parent alone.

Target: human TRPV1 (Homo sapiens (Human), UniProt Q8NER1)
Details: read-out: IC50 (μM), antagonist effect against human TRPV1; CHO cells expressing human TrpV1; stimulated with 2.5 μM NADA (EC80); mean of at least three independent experiments
Experimental: Chinese Hamster Ovary (CHO) cells transfected to express human TrpV1 receptor (which are herein referred to as CHO-huTrpV1 cells), were grown in F-12 Ham's Nutrient Mixture media (HyClone SH30026.01) supplemented with 10% Fetal Bovine Serum (Invitrogen #26140-079), 1% Antibiotic/antimycotic (Invitrogen #15240-062) and 500 ug/mL geneticin (ThermoFisher scientific #1031035). Cells were grown in T-75 flasks at 37° C. incubator with 5% CO2. The cells were passaged twice a week at a ratio of 1:10 to 1:20 to maintain steady growth. For experimentation, cells were harvested at approximately 80% confluency and plated onto 384 well black cell culture plates (cat #781091, Greinier Bio-One Inc.) at 15,000 cells per well in 20 μl media and grown overnight.
The loading dye was prepared following instruction of Calcium 6 assay kit (Molecular Probes, #R8190): 10 ml buffer from bottle B was added to 1 vial of bottle A (adapted to room temperature from −20° C.) and mixed well, then 2.5 mM of fresh prepared probenecid, was added and mixed well. 20 μl/well of loading dye was added on top of the cells, and incubated at 37° C. for 1 hour 30 min.
Assay buffer preparation: 1×HBSS, 2 mM HEPES, 0.1% BSA plus 2.5 mM freshly prepared probenecid (Invitrogen, #P36400). 25 μl/well assay buffer in 384 well clear plate (cat #782281, Greiner Bio-one) was dispensed with buffer distributor (Multidrop ComB1 from Thermo Scientific). The compounds were in 384 Echo plate (cat #LPL0200, Labcyte) and the starting concentration of compound was 10 mM, then 1 to 3 serial dilution in 100% DMSO, 8 ul/well). 125 nl compounds was transferred to the 384 well plate containing 25 μl/well buffer with Echo® 555 Liquid Handler (Labcyte), such that the compound concentration was 5 fold of final concentration. The plate was shook slowly at 40 rpm/min for 10 min to mix. 10 μl of 5 fold compound in the buffer was transferred to the cell plate (containing 20 μl cells and 20 μl dye) using Vertical Pipetting Station 384ST (Agilent Technologies). Six fold of final concentration of NADA (N-arachidonyl dopamine, cat #A8848, Sigma) in the assay buffer was prepared and 30 μl/well was distributed in 384 well clear plate.
After compounds were added to the cell plate with loading dye, within 10-15 minutes, cell plate and plate containing NADA was placed into the FLIPR (Fluorescent Imaging Plate Reader) instrument (Tetra System, Molecular device). The TRPV1 receptor was stimulated by application of 10 μl per well of NADA. For testing the effect of compounds for possible antagonism, 2.5 μM NADA was used at the EC80 concentration.
For determination of antagonist IC50 values (concentration of antagonist that inhibits response to NADA by 50%), at least 10 antagonist concentration were measured in triplicate. The response in the presence of the antagonist was calculated as a percentage of the control response to NADA and was plotted against the concentration of the antagonist. The IC50 was estimated by non-linear regression analysis to sigmoidal-logistic curves by HELIOS (PROD 2) system. These values were averaged (means and standard error of the mean) for at least three independent experiments.

Sequence of human TRPV1 (Q8NER1 whole entry): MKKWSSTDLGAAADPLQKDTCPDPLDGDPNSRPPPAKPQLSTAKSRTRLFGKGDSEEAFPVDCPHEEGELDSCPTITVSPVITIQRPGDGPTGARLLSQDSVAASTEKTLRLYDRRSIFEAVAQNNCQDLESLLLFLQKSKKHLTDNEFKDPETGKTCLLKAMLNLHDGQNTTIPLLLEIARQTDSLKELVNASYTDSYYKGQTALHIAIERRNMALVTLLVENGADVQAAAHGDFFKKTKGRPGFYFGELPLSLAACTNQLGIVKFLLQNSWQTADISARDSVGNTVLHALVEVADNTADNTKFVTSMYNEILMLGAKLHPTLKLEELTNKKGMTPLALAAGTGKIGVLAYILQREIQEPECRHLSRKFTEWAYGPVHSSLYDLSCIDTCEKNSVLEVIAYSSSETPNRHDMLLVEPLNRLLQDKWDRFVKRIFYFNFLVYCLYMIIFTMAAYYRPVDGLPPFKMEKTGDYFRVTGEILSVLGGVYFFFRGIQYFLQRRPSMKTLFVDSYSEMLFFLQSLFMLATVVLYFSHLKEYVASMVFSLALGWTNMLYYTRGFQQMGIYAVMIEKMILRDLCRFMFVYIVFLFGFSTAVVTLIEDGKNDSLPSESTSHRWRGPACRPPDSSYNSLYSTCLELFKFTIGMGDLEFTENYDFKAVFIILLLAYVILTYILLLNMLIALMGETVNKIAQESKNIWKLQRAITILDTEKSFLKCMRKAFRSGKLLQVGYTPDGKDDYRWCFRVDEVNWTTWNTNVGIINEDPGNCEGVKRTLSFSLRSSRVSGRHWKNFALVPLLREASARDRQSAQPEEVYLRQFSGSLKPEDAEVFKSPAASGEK

Compound	IC50 [µM]
C[C@]1(NCc2c(F)ccc3cnccc23)C[C@@H](Oc2ccc(F)c(C(F)(F)F)c2)C1 [Example 68 cis, (1s,3s)-3-(4-fluoro-3-(trifluoromethyl)phenoxy)-N-((6-fluoroisoquinolin-5-yl)methyl)-1-methylcyclobutan-1-amine]	0.333
C[C@]1(NCc2c(F)ccc3cnccc23)C[C@H](Oc2ccc(F)c(C(F)(F)F)c2)C1 [Example 68 trans, (1r,3r)-3-(4-fluoro-3-(trifluoromethyl)phenoxy)-N-((6-fluoroisoquinolin-5-yl)methyl)-1-methylcyclobutan-1-amine]	0.0129
Nc1cc2c(CC(=O)N[C@H]3C[C@H](Oc4ccc(F)c(C(F)(F)F)c4)C3)c(F)ccc2cn1 [Example 69, 2-(3-amino-6-fluoroisoquinolin-5-yl)-N-((1r,3r)-3-(4-fluoro-3-(trifluoromethyl)phenoxy)cyclobutyl)acetamide]	0.00015
CC(=O)NCC(O)c1cc(F)c(CN[C@H]2C[C@H](Oc3ccc(F)c(C(F)(F)F)c3)C2)c2ccncc12 (some centres unmarked) [Example 70, N-(2-(6-fluoro-5-((((1r,3r)-3-(4-fluoro-3-(trifluoromethyl)phenoxy)cyclobutyl)amino)methyl)isoquinolin-8-yl)-2-hydroxyethyl)acetamide]	0.402
Fc1ccc2cnccc2c1CN[C@H]1C[C@H](Oc2cccc(C(F)(F)F)c2)C1 [Example 71, (1r,3r)-N-((6-fluoroisoquinolin-5-yl)methyl)-3-(3-(trifluoromethyl)phenoxy)cyclobutan-1-amine, HCl]	0.0316
O=C(O)C(O)c1cc(F)c(CN[C@H]2C[C@H](Oc3ccc(F)c(C(F)(F)F)c3)C2)c2ccncc12 (some centres unmarked) [Example 72, 2-(6-fluoro-5-((((1r,3r)-3-(4-fluoro-3-(trifluoromethyl)phenoxy)cyclobutyl)amino)methyl)isoquinolin-8-yl)-2-hydroxyacetic acid]	0.0521
[O-][n+]1ccc2c(CN[C@H]3C[C@H](Oc4ccc(F)c(C(F)(F)F)c4)C3)c(F)ccc2c1 [Example 73, 6-fluoro-5-((((1r,3r)-3-(4-fluoro-3-(trifluoromethyl)phenoxy)cyclobutyl)amino)methyl)isoquinoline 2-oxide]	0.193
Nc1cc2c(CN[C@H]3C[C@H](Oc4ccc(C(F)(F)F)nc4)C3)cccc2cn1 [Example 74, 5-((((1r,3r)-3-((6-(trifluoromethyl)pyridin-3-yl)oxy)cyclobutyl)amino)methyl)isoquinolin-3-amine]	0.995
N#Cc1ccc(O[C@H]2C[C@H](NCc3c(F)ccc4cnccc34)C2)c(F)n1 [Example 75, 6-fluoro-5-((1r,3r)-3-(((6-fluoroisoquinolin-5-yl)methyl)amino)cyclobutoxy)picolinonitrile, HCl]	0.269
Fc1ccc2cnccc2c1CN[C@H]1C[C@H](Oc2ccc(C(F)(F)F)cc2)C1 [Example 76, (1r,3r)-N-((6-fluoroisoquinolin-5-yl)methyl)-3-(4-(trifluoromethyl)phenoxy)cyclobutan-1-amine, HCl]	0.0277
OCCC(CO)c1cc(F)c(CN[C@H]2C[C@H](Oc3ccc(F)c(C(F)(F)F)c3)C2)c2ccncc12 (some centres unmarked) [Example 77, 2-(6-fluoro-5-((((1r,3r)-3-(4-fluoro-3-(trifluoromethyl)phenoxy)cyclobutyl)amino)methyl)isoquinolin-8-yl)butane-1,4-diol]	0.691
Fc1ccc(CO[C@H]2C[C@H](NCc3c(F)ccc4cnccc34)C2)cc1F [Example 78, (1r,3r)-3-((3,4-difluorobenzyl)oxy)-N-((6-fluoroisoquinolin-5-yl)methyl)cyclobutan-1-amine]	0.77
Cc1ccc(O[C@H]2C[C@H](NCc3c(F)ccc4cnccc34)C2)cc1C [Example 79, (1r,3r)-3-(3,4-dimethylphenoxy)-N-((6-fluoroisoquinolin-5-yl)methyl)cyclobutan-1-amine, HCl]	0.147
CCOC(=O)c1ccc(O[C@H]2C[C@H](NCc3c(F)ccc4cnccc34)C2)cc1 [Example 80, ethyl 4-((1r,3r)-3-(((6-fluoroisoquinolin-5-yl)methyl)amino)cyclobutoxy)benzoate]	0.98
CN(C)c1ccc2cnccc2c1CN[C@H]1C[C@H](Oc2ccc(F)c(C(F)(F)F)c2)C1 [Example 81, 5-((((1r,3r)-3-(4-fluoro-3-(trifluoromethyl)phenoxy)cyclobutyl)amino)methyl)-N,N-dimethylisoquinolin-6-amine, HCl]	0.255
Fc1cc(F)cc(O[C@H]2C[C@H](NCc3c(F)ccc4cnccc34)C2)c1 [Example 82, (1r,3r)-3-(3,5-difluorophenoxy)-N-((6-fluoroisoquinolin-5-yl)methyl)cyclobutan-1-amine, HCl]	0.169
Fc1ccc2cnccc2c1CN[C@H]1C[C@H](Oc2ccc(S(F)(F)(F)(F)F)cc2)C1 [Example 83, (1r,3r)-N-((6-fluoroisoquinolin-5-yl)methyl)-3-(4-(pentafluoro-λ^6-sulfaneyl)phenoxy)cyclobutan-1-amine, HCl]	0.207
Cc1cc(C)cc(O[C@H]2C[C@H](NCc3c(F)ccc4cnccc34)C2)c1 [Example 84, (1r,3r)-3-(3,5-dimethylphenoxy)-N-((6-fluoroisoquinolin-5-yl)methyl)cyclobutan-1-amine, HCl]	0.722

Compound	IC50 [µM]
Fc1ccc2cnccc2c1CN[C@H]1C[C@H](Oc2ccc(C3CC3)cc2)C1 [Example 85, (1r,3r)-3-(4-cyclopropylphenoxy)-N-((6-fluoroisoquinolin-5-yl)methyl)cyclobutan-1-amine, HCl]	0.155
N#Cc1ccc(O[C@H]2C[C@H](NCc3c(F)ccc4cnccc34)C2)cc1C(F)(F)F [Example 86, 4-((1r,3r)-3-(((6-fluoroisoquinolin-5-yl)methyl)amino)cyclobutoxy)-2-(trifluoromethyl)benzonitrile, HCl]	0.0693
Fc1ccc(O[C@H]2C[C@H](NCc3cccc4cncnc34)C2)cc1C(F)(F)F [Example 87, (1r,3r)-3-(4-fluoro-3-(trifluoromethyl)phenoxy)-N-(quinazolin-8-ylmethyl)cyclobutan-1-amine, HCl]	0.321
Fc1ccc2cnccc2c1CN[C@H]1C[C@H](Oc2cccc(C3CC3)c2)C1 [Example 88, (1r,3r)-3-(3-cyclopropylphenoxy)-N-((6-fluoroisoquinolin-5-yl)methyl)cyclobutan-1-amine, HCl]	0.0952
OCc1cc(F)c(CN[C@H]2C[C@@H](Oc3ccc(F)c(C(F)(F)F)c3)C2)c2ccncc12 [Example 89, (6-fluoro-5-((((1s,3s)-3-(4-fluoro-3-(trifluoromethyl)phenoxy)cyclobutyl)amino)methyl)isoquinolin-8-yl)methanol, HCl]	0.44
OCc1cc(F)c(CN[C@H]2C[C@H](Oc3ccnc(C(F)(F)F)c3)C2)c2ccncc12 [Example 90, (6-fluoro-5-((((1r,3r)-3-((2-(trifluoromethyl)pyridin-4-yl)oxy)cyclobutyl)amino)methyl)isoquinolin-8-yl)methanol]	0.874
Fc1ccc(O[C@H]2C[C@H](NCc3c(F)ccc4cnccc34)C2)cc1C(F)F [Example 91, (1r,3r)-3-(3-(difluoromethyl)-4-fluorophenoxy)-N-((6-fluoroisoquinolin-5-yl)methyl)cyclobutan-1-amine, HCl]	0.0399
COc1ncc(O[C@H]2C[C@H](NCc3c(F)ccc4cnccc34)C2)cc1C(F)(F)F [Example 92, (1r,3r)-N-((6-fluoroisoquinolin-5-yl)methyl)-3-((6-methoxy-5-(trifluoromethyl)pyridin-3-yl)oxy)cyclobutan-1-amine, HCl]	0.58
Fc1cc(O[C@H]2C[C@H](NCc3c(F)ccc4cnccc34)C2)ccc1OC(F)(F)F [Example 93, (1r,3r)-3-(3-fluoro-4-(trifluoromethoxy)phenoxy)-N-((6-fluoroisoquinolin-5-yl)methyl)cyclobutan-1-amine, HCl]	0.0826
Fc1ccc2cnccc2c1CN[C@H]1C[C@H](Oc2ccc(C(F)(F)F)nc2)C1 [Example 94, (1r,3r)-N-((6-fluoroisoquinolin-5-yl)methyl)-3-((6-(trifluoromethyl)pyridin-3-yl)oxy)cyclobutan-1-amine, HCl]	0.193
Fc1ccc2cnccc2c1CN[C@H]1C[C@H](Oc2cncc(C(F)(F)F)c2)C1 [Example 95, (1r,3r)-N-((6-fluoroisoquinolin-5-yl)methyl)-3-((5-(trifluoromethyl)pyridin-3-yl)oxy)cyclobutan-1-amine, HCl]	0.323
Fc1ccc2cnccc2c1CN[C@H]1C[C@H](Oc2nc3ccccc3s2)C1 [Example 96, (1r,3r)-3-(benzo[d]thiazol-2-yloxy)-N-((6-fluoroisoquinolin-5-yl)methyl)cyclobutan-1-amine, HCl]	0.747
CCc1ccc2cnccc2c1CN[C@H]1C[C@H](Oc2ccc(F)c(C(F)(F)F)c2)C1 [Example 97, (1r,3r)-N-((6-ethylisoquinolin-5-yl)methyl)-3-(4-fluoro-3-(trifluoromethyl)phenoxy)cyclobutan-1-amine, HCl]	0.28
Fc1ccc(O[C@H]2C[C@H](NCc3cccc4cnc(Cl)cc34)C2)cc1C(F)(F)F [Example 98, (1r,3r)-N-((3-chloroisoquinolin-5-yl)methyl)-3-(4-fluoro-3-(trifluoromethyl)phenoxy)cyclobutan-1-amine, HCl]	0.418
Fc1ccc(S[C@H]2C[C@H](NCc3cccc4cnccc34)C2)cc1C(F)(F)F [Example 99, (1r,3r)-3-((4-fluoro-3-(trifluoromethyl)phenyl)thio)-N-(isoquinolin-5-ylmethyl)cyclobutan-1-amine, HCl]	0.362
Fc1ccc(S[C@H]2C[C@H](NCc3c(F)ccc4cnccc34)C2)cc1C(F)(F)F [Example 100, (1r,3r)-3-((4-fluoro-3-(trifluoromethyl)phenyl)thio)-N-((6-fluoroisoquinolin-5-yl)methyl)cyclobutan-1-amine, HCl]	0.074
Fc1cc(O[C@H]2C[C@H](NCc3c(F)ccc4cnccc34)C2)ccc1C(F)F [Example 101, (1r,3r)-3-(4-(difluoromethyl)-3-fluorophenoxy)-N-((6-fluoroisoquinolin-5-yl)methyl)cyclobutan-1-amine]	0.0147
